Test results from ChEMBL document CHEMBL1201862, “PubChem BioAssay data set” (2004).
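Results reflect a 48-hour exposure of cells in 96-well plates to compound at five concentrations. At the GI50, growth is halved.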 Calls of active or inactive are those of the source. Cut-off read from the data, not from the text of the source: active = GI50 up to about 1.1 µM and inactive = higher.

How the values were obtained:
Test in all cases: inhibition of tumour cell growth, NCI panel, 48 h
MDA-N = test system: MDA-N
M14 = test system: M14
OVCAR-8 = test system: OVCAR-8
SR = test system: SR
LOX IMVI = test system: LOX IMVI
SK-MEL-5 = test system: SK-MEL-5
PC-3 = test system: PC-3
ACHN = test system: ACHN
SF-295 = test system: SF-295
CAKI-1 = test system: CAKI-1
OVCAR-5 = test system: OVCAR-5
MCF7 = test system: MCF7
SN12C = test system: SN12C
OVCAR-3 = test system: OVCAR-3
HT-29 = test system: HT-29
CCRF-CEM = test system: CCRF-CEM
SK-MEL-2 = test system: SK-MEL-2
SF-539 = test system: SF-539
UO-31 = test system: UO-31

Measured: GI50

O=C1c2ccccc2C(=O)N1c1ccc(OCCN2CCCCC2)cc1
inactive: MDA-N > 100 µM | M14 > 100 µM | OVCAR-8 > 100 µM | SR > 100 µM | LOX IMVI > 100 µM | SK-MEL-5 > 100 µM | PC-3 > 100 µM | ACHN > 100 µM | SF-295 > 100 µM | CAKI-1 > 100 µM | OVCAR-5 > 100 µM | MCF7 > 100 µM | SN12C > 100 µM | OVCAR-3 > 100 µM | HT-29 > 100 µM | CCRF-CEM > 100 µM | SK-MEL-2 > 100 µM | SF-539 > 100 µM

C=C1c2cc3c(cc2CC12Cc1cc4c(cc1C2=O)CCC4)CCC3 (stereo unspecified)
inactive: MDA-N > 100 µM | M14 > 100 µM | OVCAR-8 > 100 µM | SR 36.1 µM | LOX IMVI > 100 µM | SK-MEL-5 > 100 µM | UO-31 > 100 µM | PC-3 > 100 µM | ACHN > 100 µM | SF-295 > 100 µM | CAKI-1 > 100 µM | OVCAR-5 > 100 µM | MCF7 > 100 µM | OVCAR-3 > 100 µM | HT-29 > 100 µM | CCRF-CEM > 100 µM | SK-MEL-2 > 100 µM | SF-539 > 100 µM

Cc1ccc(Nc2nc(=O)[nH]c(=O)[nH]2)cc1N
inactive: MDA-N > 100 µM | M14 > 100 µM | OVCAR-8 > 100 µM | SR > 100 µM | LOX IMVI > 100 µM | SK-MEL-5 > 100 µM | PC-3 > 100 µM | ACHN > 100 µM | SF-295 > 100 µM | CAKI-1 > 100 µM | OVCAR-5 > 100 µM | MCF7 > 100 µM | SN12C > 100 µM | OVCAR-3 > 100 µM | HT-29 > 100 µM | CCRF-CEM > 100 µM | SK-MEL-2 > 100 µM | SF-539 > 100 µM

CCCCn1c(C)c(C(=O)OCC)s/c1=N/Nc1nc2ccccc2nc1-c1ccccc1
inactive: MDA-N > 100 µM | M14 > 100 µM | OVCAR-8 56.2 µM | SR > 100 µM | LOX IMVI > 100 µM | SK-MEL-5 46.8 µM | PC-3 30.9 µM | ACHN 78.3 µM | SF-295 43.3 µM | CAKI-1 > 100 µM | OVCAR-5 > 100 µM | MCF7 82.4 µM | SN12C > 100 µM | OVCAR-3 72.1 µM | HT-29 > 100 µM | CCRF-CEM > 100 µM | SK-MEL-2 > 100 µM | SF-539 > 100 µM

N/N=C1\C(OC(=O)Nc2ccccc2)=Nc2ccccc21
inactive: MDA-N 19.1 µM | M14 13.4 µM | OVCAR-8 12.1 µM | SR 25.6 µM | LOX IMVI 14.5 µM | SK-MEL-5 14.2 µM | UO-31 12.7 µM | PC-3 15.4 µM | ACHN 15.1 µM | SF-295 14 µM | CAKI-1 14.9 µM | OVCAR-5 45.1 µM | MCF7 9.93 µM | SN12C 19.2 µM | OVCAR-3 11.2 µM | HT-29 30.5 µM | SK-MEL-2 19.7 µM | SF-539 15.6 µM

COC1/C=C\OC2(C)Oc3c(C)c(O)c4c(O)c(c(CN(C)C)c(O)c4c3C2=O)NC(=O)/C(C)=C\C=C/C(C)C(O)C(C)C(O)C(C)C(OC(C)=O)C1C (stereo unspecified)
inactive: MDA-N 30.6 µM | M14 19.4 µM | OVCAR-8 30.6 µM | SR 15.7 µM | LOX IMVI 17.6 µM | SK-MEL-5 18.5 µM | UO-31 39 µM | PC-3 23 µM | ACHN 61.9 µM | SF-295 > 100 µM | CAKI-1 57.1 µM | OVCAR-5 > 100 µM | MCF7 17.9 µM | SN12C 25.9 µM | OVCAR-3 15.4 µM | HT-29 20.6 µM | SK-MEL-2 18.7 µM | SF-539 17.5 µM

O=S(=O)(Nc1nc2ccccc2nc1Nc1cccc2ccccc12)c1ccccc1
inactive: MDA-N > 100 µM | M14 62.4 µM | OVCAR-8 20.7 µM | SR > 100 µM | LOX IMVI > 100 µM | SK-MEL-5 10.7 µM | UO-31 2.43 µM | PC-3 6.46 µM | ACHN 8 µM | SF-295 6.17 µM | CAKI-1 31.8 µM | OVCAR-5 > 100 µM | MCF7 > 100 µM | SN12C > 100 µM | OVCAR-3 4.67 µM | SK-MEL-2 18.9 µM | SF-539 44.9 µM

Cc1cc(Cl)cc2c1NC(=O)/C2=N\Nc1ccccc1[N+](=O)[O-]
inactive: MDA-N > 100 µM | M14 > 100 µM | SR 16.7 µM | LOX IMVI 84.7 µM | SK-MEL-5 > 100 µM | UO-31 > 100 µM | PC-3 38.8 µM | ACHN > 100 µM | SF-295 64.7 µM | CAKI-1 > 100 µM | OVCAR-5 > 100 µM | MCF7 > 100 µM | SN12C > 100 µM | OVCAR-3 > 100 µM | CCRF-CEM 21.1 µM | SK-MEL-2 > 100 µM | SF-539 > 100 µM

C/C(=C/CC[C@](C)(OC1OC(CO)C(O)C(O)C1OC1OC(C)C(O)C(O)C1O)[C@H]1CC[C@]2(C)[C@@H]1CC[C@@H]1[C@@]3(C)CC[C@H](O)C(C)(C)[C@@H]3C[C@H](O)[C@]12C)CO (stereo partly specified)
inactive: MDA-N > 100 µM | M14 > 100 µM | OVCAR-8 > 100 µM | SR > 100 µM | LOX IMVI > 100 µM | SK-MEL-5 > 100 µM | UO-31 > 100 µM | PC-3 > 100 µM | ACHN > 100 µM | SF-295 > 100 µM | CAKI-1 > 100 µM | OVCAR-5 > 100 µM | MCF7 > 100 µM | SN12C > 100 µM | OVCAR-3 > 100 µM | HT-29 > 100 µM | CCRF-CEM > 100 µM | SF-539 > 100 µM

COc1ccc(Nc2nc3cc(C(F)(F)F)ccc3n3cccc23)cc1OC
inactive: MDA-N 12.6 µM | M14 14.3 µM | OVCAR-8 23.3 µM | SR 9.89 µM | LOX IMVI 4.7 µM | SK-MEL-5 14.5 µM | UO-31 22.8 µM | PC-3 10.6 µM | ACHN 17.7 µM | SF-295 10.3 µM | CAKI-1 27.9 µM | OVCAR-5 18.6 µM | MCF7 16.6 µM | OVCAR-3 20.7 µM | HT-29 8.99 µM | CCRF-CEM 10.7 µM | SK-MEL-2 15.5 µM | SF-539 16.8 µM

Cc1cc(Cl)ccc1OCC(=O)Oc1c(Cl)c(Cl)c(Cl)c(Cl)c1Cl
inactive: MDA-N 26.2 µM | M14 26.6 µM | OVCAR-8 26 µM | SR 17.7 µM | LOX IMVI 22.5 µM | SK-MEL-5 22.9 µM | UO-31 17.1 µM | PC-3 28.2 µM | ACHN 28.2 µM | SF-295 24.1 µM | CAKI-1 33 µM | OVCAR-5 24.4 µM | MCF7 26.8 µM | SN12C 25.4 µM | OVCAR-3 18.2 µM | HT-29 26.7 µM | SK-MEL-2 24.2 µM | SF-539 38.7 µM
